Measured values as given in patent publication US20050159345A1 (Boehringer Ingelheim International GmbH, priority 2002, published 2005).
Where two headings read alike, the source gives them in different places.

Columns and labels:
HCV replicon 1a = assay: Cell-based HCV 1a RNA replicon assay; conditions: Hepatitis C virus, 72 h; Huh-7-derived replicon cells, 3 day incubation, HCV RNA by RT-PCR
Description: These cells were used to establish a sensitive HCV RNA replication cell-based assay for testing candidate test compounds.
Huh7 cells that stably maintain a subgenomic HCV replicon were established as previously described (Lohman et al. 1999; WO 02/052015). The cells were seeded into a 96 well cell culture cluster at 1×10^4 cells per well in DMEM complemented with 10% FBS, PenStrep (Life Technologies) and […] Geneticin. Cells were incubated in a 5% CO2 incubator at 37° C. until addition of various concentrations of the test compound.
The test compound was prepared for use in the assay as follows. The test compound in 100% DMSO was added diluted in assay Medium for a final DMSO concentration of 0.5% and the solution was sonicated for 15 min and filtered through a […] Millipore Filter Unit. Serial dilutions of the test compounds were prepared using Assay Medium (containing 0.5% DMSO).
Cell culture medium was aspirated from the 96-well plate containing the cells and the appropriate dilution of test compound in assay medium was transferred to independent wells of the cell culture plate which was incubated at 37° with 5% CO2.
Following a 3 day-incubation period, the cells were washed with PBS and total cellular RNA was extracted with the RNeasy Mini Kit® and Qiashredder® from Qiagen. RNA from each well was eluted in 50 μL of H2O. RNA was quantified by optical density at 260 nm on the Cary 1E® UV-Visible spectrophotometer. The HCV RNA replicon copy number was evaluated by real-time RT-PCR with the Abi Prism® 7700 Sequence Detection System. The TAQMAN E® RT-PCR kit provides a system for the detection and analysis of RNA. Direct detection of the reverse transcription polymerase chain reaction (RT-PCR) product with no downstream processing was accomplished by monitoring the increase in fluorescence of a dye-labeled DNA probe. The nucleotide sequence of both primers and probe was located in the 5′ region of the HCV genome. The replicon copy number was then evaluated using a standard curve made with known amounts of replicon copy (supplemented with 50 ng of wild type Huh-7 RNA) assayed in the same reaction mix. The following thermal cycle parameters were used for the RT-PCR reaction on the ABI Prism® 7700 Sequence Detection System. Conditions were optimized for HCV detection. Quantification is based on the threshold cycle, where the amplification plot crosses a defined fluorescence threshold. Comparison of the threshold cycles provides a highly sensitive measure of relative template concentration in different samples. Monitoring during early cycles, when PCR fidelity is at its highest, provides precise data for accurate quantification. The relative template concentration can be converted to real numbers by using the standard curve of HCV with known number of copy.
The level of inhibition (% inhibition) of each well containing test compound was calculated with the following equation (CN═HCV Replicon copy number): [formula]
The calculated % inhibition values were then used to determine EC50, slope factor (n) and maximum inhibition (Imax) by the non-linear regression routine NLIN procedure of SAS using the following equation: [formula]

[1] = target: T1, HCV 1a NS3-NS4A heterodimer protein (Hepatitis C virus genotype 1a, UniProt P27958); assay: In vitro HCV NS3 protease assay (fluorogenic depsipeptide), genotype 1a; assay type: biochemical
T1 construct: Co-purification of mature NS3 and NS4A protein complex was verified by Western blot analysis; made in house; host or cells: Sf21 insect cells, recombinant baculovirus (pFastBac HTa)
T1 sequence (P27958 1027-1657): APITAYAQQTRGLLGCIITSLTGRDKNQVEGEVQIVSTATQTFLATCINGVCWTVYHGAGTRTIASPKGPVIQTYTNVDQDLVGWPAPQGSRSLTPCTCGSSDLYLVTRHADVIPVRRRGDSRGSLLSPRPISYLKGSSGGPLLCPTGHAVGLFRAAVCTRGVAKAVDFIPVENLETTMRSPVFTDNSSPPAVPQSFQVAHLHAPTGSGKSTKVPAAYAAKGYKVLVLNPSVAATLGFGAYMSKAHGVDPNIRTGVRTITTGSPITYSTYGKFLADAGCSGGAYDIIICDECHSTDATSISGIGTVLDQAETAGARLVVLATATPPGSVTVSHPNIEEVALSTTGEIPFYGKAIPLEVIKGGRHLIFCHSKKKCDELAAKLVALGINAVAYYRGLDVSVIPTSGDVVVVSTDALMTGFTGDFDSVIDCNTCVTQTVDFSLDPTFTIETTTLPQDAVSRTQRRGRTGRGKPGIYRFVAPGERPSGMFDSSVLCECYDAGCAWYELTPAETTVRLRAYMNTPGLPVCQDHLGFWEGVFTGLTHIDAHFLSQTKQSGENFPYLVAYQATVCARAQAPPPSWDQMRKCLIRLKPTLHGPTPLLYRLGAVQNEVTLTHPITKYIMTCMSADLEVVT
T1 sequence (P27958 1658-1711): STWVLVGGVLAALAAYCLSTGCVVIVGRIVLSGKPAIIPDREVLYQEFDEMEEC
Description: For production of the HCV genotype 1b NS3-NS4A heterodimer protein, a full-length HCV cDNA was cloned by RT-PCR using RNA extracted from the serum of an HCV genotype 1b infected individual (provided by Dr. Bernard Willems, Hôpital St-Luc, Montréal, Canada). […] For HCV genotype 1a, the DNA encoding NS3-NS4A heterodimer protein was PCR-amplified (forward primer: 5′[sequence]3′ (SEQ ID No.3); reverse primer: 5′[sequence]3′ (SEQ ID No.4)) from the HCV genotype la strain H77 (provided by ViroPharma Inc., Exton, Pa., U.S.) and subcloned as described above. The cloning into the pFastBac™ HTa baculovirus expression vector generated a recombinant fusion protein containing an additional N-terminal 28 residues that comprised a hexahistidine tag and a rTEV protease cleavage site. The Bac-to-Bac™ baculovirus expression system (Gibco/BRL) was used to produce the recombinant baculovirus for protein expression.
His-tagged NS3-NS4A heterodimer protease was expressed by infecting Sf21 insect cells (Invitrogen) at a density of 10^6 cells/mL with the recombinant baculovirus at a multiplicity of infection of 0.1-0.2 at 27° C. The infected culture was harvested 48 to 64 h later by centrifugation at 4° C. The cell pellet was homogenized in 50 mM sodium phosphate, pH 7.5, 40% glycerol (w/v), 2 mM β-mercaptoethanol. His-NS3-NS4A heterodimer protease was then extracted from the cell lysate with 1.5% NP-40, 0.5% Triton X-100, 0.5M NaCl, and a DNase treatment. […]
The fluorescence was monitored using the BMG POLARstar Galaxy 96-well plate reader with an excitation filter of 320 nm, and an emission filter of 405 nm. The level of inhibition (% inhibition) of each well containing test compound was calculated with the following equation (FU=fluorescence unit): [formula]
The calculated % inhibition values were then used to determine IC50, slope factor (n) and maximum inhibition (Imax) by the non-linear regression routine NLIN procedure of SAS using the following equation: [formula]

[2] = tested on: HCV replicon-containing, Huh-7-derived cell lines; conditions: human
[3] = target: T2, HCV genotype 1b NS3-NS4A protease (UniProt P26662); assay: Inhibition constant (Ki) determination and mode of inhibition, steady-state velocity, genotype 1b; assay type: biochemical
T2 construct: fused on or other part: 28 extra N-terminal residues with a hexahistidine tag and an rTEV cleavage site
T2 sequence (P26662 1027-1657): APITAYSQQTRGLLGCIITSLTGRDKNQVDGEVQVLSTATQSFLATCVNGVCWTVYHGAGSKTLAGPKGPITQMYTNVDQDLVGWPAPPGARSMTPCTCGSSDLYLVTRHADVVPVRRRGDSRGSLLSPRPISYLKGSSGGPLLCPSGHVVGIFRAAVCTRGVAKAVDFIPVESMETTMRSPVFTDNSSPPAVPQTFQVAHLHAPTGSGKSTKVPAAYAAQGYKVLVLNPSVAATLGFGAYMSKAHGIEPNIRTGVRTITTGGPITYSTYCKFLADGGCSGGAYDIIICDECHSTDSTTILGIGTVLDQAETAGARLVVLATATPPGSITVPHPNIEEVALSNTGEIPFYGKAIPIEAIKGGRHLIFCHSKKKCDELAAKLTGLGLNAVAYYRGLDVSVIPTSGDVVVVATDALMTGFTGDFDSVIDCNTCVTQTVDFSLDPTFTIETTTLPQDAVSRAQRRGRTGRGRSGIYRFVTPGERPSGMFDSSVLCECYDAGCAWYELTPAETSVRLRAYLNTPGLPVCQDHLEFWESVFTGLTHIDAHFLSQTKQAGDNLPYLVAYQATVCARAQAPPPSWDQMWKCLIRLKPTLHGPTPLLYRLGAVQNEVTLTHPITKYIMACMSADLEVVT
Description: The fluorogenic depsipeptide substrate anthranilyl-D(d)EIVP-Nva[C(O)—O] AMY(3-N2)TW—OH (SEQ ID No.13) was used to assess the mechanism of inhibition and the inhibition constants of the compound (IV) against HCV NS3-NS4A proteases. It was cleaved between the norvaline and the alanine residues. The substrate working solution was prepared in DMSO at the concentration of 200 μM from the substrate stock solution (2 mM in DMSO stored at —20° C.). The final substrate concentration in the assay varied from 0.25 to 8 μM. The inhibition constant (Ki) for compound (IV) was determined using a steady-state velocity method (Morrisson et al. 1985). The protease activity was determined by monitoring the fluorescence change associated with the cleavage of the internally quenched fluorogenic substrate using a SLM-AMINCO® 8100 spectrofluorometer ([…]). The cleavage reaction was monitored in the presence of 0.25 to 8 μM of substrate, 0.3 nM of HCV 1a or 1b NS3-NS4A heterodimer protein and various concentrations of the test compound IV in 50 mM Tris-HCl, pH 8.0, 0.25M sodium citrate, 0.01% n-dodecyl-β-D-maltoside, 1 mM TCEP. The steady-state analysis of inhibition of the HCV genotype 1a and 1b NS3-NS4A heterodimer proteases were performed using the Dixon and Cornish-Bowden graphical methods. […]

[4] = target: T3, HCV genotype 2b NS3-NS4A protease (UniProt P26661); assay: Inhibition constant (Ki) determination, genotype 2b; assay type: biochemical; conditions: read-out: Ki HCV genotype 2b
T3 construct: fused on or other part: 28 extra N-terminal residues with a hexahistidine tag and an rTEV cleavage site
T3 sequence (P26661 1031-1661): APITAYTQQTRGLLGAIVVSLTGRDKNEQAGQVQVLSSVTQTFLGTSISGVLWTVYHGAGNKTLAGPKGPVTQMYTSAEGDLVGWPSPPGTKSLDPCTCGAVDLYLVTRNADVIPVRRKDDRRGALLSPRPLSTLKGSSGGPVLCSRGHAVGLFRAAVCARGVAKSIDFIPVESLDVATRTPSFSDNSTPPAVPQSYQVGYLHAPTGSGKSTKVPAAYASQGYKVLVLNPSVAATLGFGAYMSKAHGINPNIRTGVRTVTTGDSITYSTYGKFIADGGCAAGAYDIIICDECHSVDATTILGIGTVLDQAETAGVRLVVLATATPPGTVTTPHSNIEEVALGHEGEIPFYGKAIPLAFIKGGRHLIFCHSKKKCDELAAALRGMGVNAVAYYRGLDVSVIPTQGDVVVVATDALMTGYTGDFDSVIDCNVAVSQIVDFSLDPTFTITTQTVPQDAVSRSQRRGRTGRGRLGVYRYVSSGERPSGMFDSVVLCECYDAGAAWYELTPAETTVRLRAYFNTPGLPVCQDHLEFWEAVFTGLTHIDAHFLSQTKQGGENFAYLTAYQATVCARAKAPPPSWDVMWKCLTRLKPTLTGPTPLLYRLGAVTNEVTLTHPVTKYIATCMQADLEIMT

[5] = HCV 1a NS3-NS4A protease, read-out: IC50 HCV-1a

## COc1ccc2c(O[C@@H]3C[C@H]4C(=O)N[C@]5(C(=O)O)CC5/C=C\CCCCC[C@H](NC(=O)OC(C)(C)C)C(=O)N4C3)cc(-c3csc(NC(C)=O)n3)nc2c1 (stereo partly shown) [III]
HCV replicon 1a
  EC50: 4.5 nM
[1]; [5]
  IC50: 4.1 nM

## COc1ccc2c(O[C@@H]3C[C@H]4C(=O)N[C@]5(C(=O)O)CC5/C=C\CCCCC[C@H](NC(=O)OC(C)(C)C)C(=O)N4C3)cc(-c3ccccc3)nc2c1 (stereo partly shown) [II]
HCV replicon 1a
  EC50: 34 nM
[1]; [5]
  IC50: 7.8 nM

## COc1ccc2c(O[C@@H]3C[C@H]4C(=O)N[C@]5(C(=O)O)CC5/C=C\CCCCC[C@H](NC(=O)OC5CCCC5)C(=O)N4C3)cc(-c3csc(NC(C)C)n3)nc2c1 (stereo partly shown) [IV]
HCV replicon 1a
  EC50: 2.1 nM
[2]
  Cytotoxicity (concentration at which not observed): higher than 1000 nM
[1]
  IC50: 4.3 nM
[3]; Dixon and Cornish-Bowden plots, GraFit
  mode of inhibition, HCV genotype 1b NS3-NS4A protease: competitive
[3]; read-out: Ki HCV genotype 1b NS3-NS4A protease, steady-state velocity analysis
  Ki: 0.66 nM
[4]
  Ki: 83 nM
